Earlier results on four compounds are cited in patent publication US10668050B2, “Compositions, methods and kits for treating diarrhea-predominant irritable bowel syndrome” (RedHill Biopharma Ltd., priority 2014, dated 2020).

Molecules are shown by their SMILES. Where a name gives a salt, the structure may show the parent alone.

The conditions of data set [1]: scale of Pliska et al., J. Chromatog. 216, 79, 1981.

Regarding `CC[C@H](C)[C@H](N)C(=O)O` [iso-leucine], the “hydropathy value (relative hydrophobic character)” value in data set [1] is on record as 1.83.
As to `N[C@@H](CC(=O)O)C(=O)O` [aspartic acid], the “hydropathy value (relative hydrophobic character)” value in data set [1] was −2.15.
On to `Cc1nccn1CC1CCc2c(c3ccccc3n2C)C1=O` (racemic) [Ondansetron HCl dihydrate, Ondansetron hydrochloride], for which the solubility entry is “soluble in water and normal saline”.
With `NCC(=O)O` [glycine], the “hydropathy value (relative hydrophobic character)” value in data set [1] is given as 0.
